How the values were obtained:
[1] = test system: poly(rA)-poly(rU) (RNA, polymer) A/U; assay: UV thermal melting at 260 nm; settings: Na+ (sodium cacodylate buffer, I=0.05 M); pH 7.0; r=[compound]/[polynucleotide]=0.1; per base
[2] = test system: poly(dAdT)2 (DNA, polymer) AT; assay: UV thermal melting at 260 nm; settings: Na+ (sodium cacodylate buffer, I=0.05 M); pH 7.0; r=[compound]/[polynucleotide]=0.1; per base
[3] = test system: poly(dT) (DNA, polymer) T; assay: fluorimetric titration, Scatchard fit; settings: Na+ (sodium cacodylate buffer, I=0.05 M), pH 7.0, n fixed, per base
[4] = test system: poly(dGdC)2 (DNA, polymer) GC; assay: fluorimetric titration, Scatchard fit; settings: Na+ (sodium cacodylate buffer, I=0.05 M), pH 7.0, n fixed, per base
[5] = test system: poly(rG) (RNA, polymer) G; assay: fluorimetric titration, Scatchard fit; settings: Na+ (sodium cacodylate buffer, I=0.05 M), pH 7.0, n fixed, per base
[6] = test system: poly(dAdT)2 (DNA, polymer) AT; assay: fluorimetric titration, Scatchard fit; settings: Na+ (sodium cacodylate buffer, I=0.05 M), pH 7.0, n fixed, per base
[7] = test system: poly(rA)-poly(rU) (RNA, polymer) A/U; assay: fluorimetric titration, Scatchard fit; settings: Na+ (sodium cacodylate buffer, I=0.05 M), pH 7.0, per base
[8] = test system: poly(rU) (RNA, polymer) U; assay: fluorimetric titration, Scatchard fit; settings: Na+ (sodium cacodylate buffer, I=0.05 M), pH 7.0, n fixed, per base
[9] = test system: poly(rA) (RNA, polymer) A; assay: fluorimetric titration, Scatchard fit; settings: Na+ (sodium cacodylate buffer, I=0.05 M), pH 7.0, n fixed, per base
[10] = test system: poly(rC) (RNA, polymer) C; assay: fluorimetric titration, Scatchard fit; settings: Na+ (sodium cacodylate buffer, I=0.05 M), pH 7.0, n fixed, per base
[11] = test system: poly(dA) (DNA, polymer) A; assay: fluorimetric titration, Scatchard fit; settings: Na+ (sodium cacodylate buffer, I=0.05 M); pH 7.0; compound 5×10^-8 M; n fixed; per base
[12] = compound 5×10^-8 M, aggregation at excess dye
[13] = compound 5×10^-8 M, apparent, lowered by competing aggregation

In the case of Cc1cc(C#Cc2c3ccccc3c(C#Cc3cc(C)c(B(c4c(C)cc([N+](C)(C)C)cc4C)c4c(C)cc([N+](C)(C)C)cc4C)c(C)c3)c3ccccc23)cc(C)c1B(c1c(C)cc([N+](C)(C)C)cc1C)c1c(C)cc([N+](C)(C)C)cc1C, the ΔT m [1] is reported as 8 ± 0.5 °C, the ΔT m [2] is reported as 6 ± 0.5 °C and the “log K S” value [3] is reported as 7.4. For the same compound, the “log K S” value ([4]; compound 1×10^-8 M) was 7.9, the “log K S” value [5] was 8.7 and the “log K S” value ([6]; compound 1×10^-8 M, aggregation at excess dye) was 7.7. The “log K S” value ([7]; compound 1×10^-8 M, limit only) was over 9, the “log K S” value [8] was 8.8 and the “log K S” value [9] was 7.8.

With Cc1cc(C#Cc2ccc(-c3ccc(C#Cc4cc(C)c(B(c5c(C)cc([N+](C)(C)C)cc5C)c5c(C)cc([N+](C)(C)C)cc5C)c(C)c4)s3)s2)cc(C)c1B(c1c(C)cc([N+](C)(C)C)cc1C)c1c(C)cc([N+](C)(C)C)cc1C the ΔT m [1] was 7 ± 0.5 °C, the ΔT m [2] was 3 ± 0.5 °C and the “log K S” value ([3]; compound 5×10^-8 M) was 7.6. For the same compound, the “log K S” value [10, 12] was 7.4, the “log K S” value [4, 13] was 6.6 and the “log K S” value [5, 12] was 7.1. For the same compound, the “log K S” value [6, 13] was 5.1, the “log K S” value [11] was 7.6 and the “log K S” value ([7]; compound 5×10^-8 M, apparent, lowered by competing aggregation, n fixed) was 6.0. The “log K S” value ([8]; compound 5×10^-8 M) was 7.0.

For Cc1cc(C#Cc2ccc(C#Cc3cc(C)c(B(c4c(C)cc([N+](C)(C)C)cc4C)c4c(C)cc([N+](C)(C)C)cc4C)c(C)c3)cc2)cc(C)c1B(c1c(C)cc([N+](C)(C)C)cc1C)c1c(C)cc([N+](C)(C)C)cc1C, the ΔT m [1] was 9 ± 0.5 °C, the “log K S” value [3] was 8.5 and the “log K S” value [10] was 7.1. For the same compound, the “log K S” value [4] was 8.4, the “log K S” value [5] was 8.7 and the “log K S” value ([6]; compound 5×10^-9 M) was 7.8. For the same compound, the “log K S” value ([7]; n fixed) was 8.6, the “log K S” value [8] was 7.4 and the “log K S” value [9] was 8.4.

Cc1cc([N+](C)(C)C)cc(C)c1B(c1c(C)cc([N+](C)(C)C)cc1C)c1c2ccccc2c(B(c2c(C)cc([N+](C)(C)C)cc2C)c2c(C)cc([N+](C)(C)C)cc2C)c2ccccc12 was tested, and the ΔT m [1] was 0 ± 0.5 °C, the “log K S” value ([10]; compound 5×10^-8 M) was 7.2 and the “log K S” value ([4]; compound 5×10^-8 M) was 7.8. The “log K S” value ([5]; compound 5×10^-8 M) was 7.3, the “log K S” value ([6]; compound 5×10^-8 M) was 7.4 and the “log K S” value ([7]; compound 5×10^-8 M, n fixed) was 7.9. The “log K S” value ([8]; compound 5×10^-8 M) was 7.1 and the “log K S” value ([9]; compound 5×10^-8 M) was 7.1.
